From US10864215B2, “Use of phosphoinositide 3-kinase inhibitors for treatment of vascular malformations” (MEMORIAL SLOAN-KETTERING CANCER CENTER, priority 2015, dated 2020)
Entries after “also recorded” stand apart in the source; their conditions may differ.

Assays:
[1] = tested on: PIK3CA^CAG-CreER VM-derived allografts; experiment: PIK3CA^CAG-CreER VM-derived allografts in nude mice, oral treatment; assay type: in vivo; conditions: for VM volume / apoptosis (cleaved caspase 3 in CD31-positive cells) / proliferation (BrdU incorporation in CD31-positive cells): allografts in nude mice, daily p.o., one week, BYL719 50 mg×kg^−1, everolimus 10 mg×kg^−1, propranolol 40 mg×kg^−1
Experimental: For allograft studies, vascular lesions isolated from PIK3CA^CAG-CreER mice were rinsed with ice cold PBS, minced, resuspended with cold 1:1 DMEM/Matrigel, and injected subcutaneously in six-week-old female athymic Foxn1^nu nude mice. […] The following formula was applied:
[formula] After one week of treatment, VM were measured and harvested for further analysis. VM volume was calculated using the following formula: […]
(§1) IHC and IF stainings were performed using Discovery XT processor (Ventana Medical Systems) at the Molecular Cytology Core (MSKCC). Tissue sections were deparaffinized with EZPrep buffer (Ventana Medical Systems), antigen retrieval was performed with CC1 buffer (Ventana Medical Systems). Sections were blocked for 30 minutes with Background Buster solution (Innovex) or 10% normal rabbit serum (for LYVE-1 antibody) followed by avidin/biotin blocking for 8 minutes. Sections were stained with the following antibodies: CD31: (Dianova, DIA-310, 1 μg×mL^−1) for 5 hours, followed by 60 minutes incubation with biotinylated goat anti-rat IgG (Vector labs, PK-4004) at 1:200 dilution. The detection was performed with Streptavidin-HRP D (Ventana Medical Systems), followed by incubation with Alexa Fluor 488 (Invitrogen, T20922); BrdU: sections were pretreated with Protease K (5 μg×mL^−1) and incubated with anti-BrdU (Roche, 1170376, 1 μg×mL^−1) for 5 hours, followed by 60 minutes incubation with biotinylated horse anti-mouse IgG (Vector Labs, MKB-22258). The detection was performed with Streptavidin-HRP D (Ventana Medical Systems), followed by incubation with Alexa Fluor 594 (Invitrogen, T20935). When two markers were used, stainings were performed consecutively according to the procedure described above. After staining, slides were counterstained with DAPI (Sigma, D9542, 5 μg×mL^−1) for 10 min and coverslipped with Mowiol. Antibodies were used as follows: GLUT-1: Sections were incubated with anti-GLUT-1 antibody (Chemicon, AB1340, 0.5 μg×mL^−1) for 4 hours, followed by 60 minutes incubation with biotinylated goat anti-rabbit IgG (Vector labs, PK6101) at 1:200 dilution; LYVE-1: Sections were incubated with anti-LYVE-1 antibody (R&D Systems, AF2125, 1 μg×mL^−1) for 3 hours, followed by 60 minutes incubation with biotinylated rabbit anti-goat IgG (Vector, BA-5000) at 1:200 dilution.; and WT-1: Sections were incubated with anti-WT-1 antibody (Abcam, Ab89901, 1:50 dilution) for 1 hour, followed by 60 minutes incubation with biotinylated rabbit anti-goat IgG (Vector, BA-5000) at 1:200 dilution. For GLUT-1, LYVE-1, and WT-1 IHC, detection was performed with DAB detection kit (Ventana Medical Systems) according to manufacturer instructions, followed by counterstaining with hematoxylin (Ventana Medical Systems) and coverslipped with Permount (Fisher Scientific).

[2] = tested on: PIK3CA^CAG-CreER VM-derived allografts; experiment: VM allografts treated topically with BYL719 1% (w/w) cream; assay type: in vivo, mice; conditions: topical, daily, BYL719 1% (w/w) in two cream formulations (free and soluble BYL719), 3 weeks
Experimental: For the formulation of topical preparations, the cream base Versatile™ (Fargon) was used, which allows the incorporation of active principles and has the ability to vanish rapidly into the skin of the mice. Two different formulations using BYL719 at 1% (w/w) were prepared as follows. Free BYL719: This formulation was generated by mixing BYL719 in powder with the base cream and homogenized using an Ultra-Turrax to achieve a similar distribution of the active principle. Soluble BYL719: For this formula, BYL719 powder was dissolved in a small volume of DMSO (400 mg×mL^−1). This concentrated solution was then incorporated into the base cream with gentle agitation, achieving a homogeneous distribution of the active principle. The topical formulations were applied into the mice lesions at daily-basis and VM growth was assessed as described above.

PIK3CA^Tie2-Cre embryos = experiment: Treatment of pregnant PIK3CA^Tie2-Cre mice, embryo vascular phenotype; assay type: in vivo
Experimental: as §1, with “For the treatment of pregnant PIK3CA^Tie2-Cre mice, BYL719 was administered orally three times at E7.5, E8.5, and E9.5. Two hours after the last treatment, embryos were harvested and characterized. IHC and” for “IHC and”

ANG2 = ANG2 mRNA (RT-qPCR) and protein (ELISA) in PIK3CA^H1047R ECs; assay type: cell-based, human; conditions: serum-starved, treated overnight, BYL719 1 μM, MK2206 1 μM, Everolimus 50 nM; for ANG2 protein expression: ELISA; for ANG2 mRNA expression: RT-qPCR
[3] = tested on: phosphorylated AKT (T308 and S473); experiment: Western blot of HUVEC cells expressing TEK L914F; assay type: cell-based, human; conditions: HUVEC stably expressing TEK L914F, treated 4 hours
Experimental: FIGS. 27A-27B. Treatment of VM with PI3K inhibitors. (A) Western blot of HUVEC cells transduced with TEK L914F mutation and probed with the indicated antibodies. Cells were treated for 4 hours with the indicated doses of BYL719. (B) Representative images of the allograft VM treated with the topical formulation of BYL719. Free and soluble refer to the two different preparations of the topical formula. Arrows indicate the area affected by the VM allograft.
Proteins were extracted using RIPA buffer and Western blot was performed usim standard methods. Antibodies for Western blot were: pAKT (S473) (Cell Signaling; 4060), pAKT (T308) (Cell Signaling; 2965), AKT (Cell Signaling; 9272), pS6K (T389) (Cell Signaling; 9205), S6K (Cell Signaling; 2708), pS6 (S240/4) (Cell Signaling; 5364), pS6 (S235/6) (Cell Signaling; 4858), S6 (Cell Signaling; 2217), actin (Cell Signaling; 4970). Tube formation assay was performed using Matrigel-coated 48 multiwells as a substrate. 10^5 EC were seeded in EBM-2 media without FBS and analyzed after 6 hours for tube formation.

[4] = pregnant mice, BYL719 50 mg×kg^−1 p.o., 48, 24 and 2 hours before harvest
[5] = VVM in nude mice, BYL719 50 mg×kg-1 daily p.o.

| SMILES | VM volume [1] | apoptosis (cleaved caspase 3 in CD31-positive cells) [1] | proliferation (BrdU incorporation in CD31-positive cells) [1] | regression of skin lesions (VM volume) [2] | meningeal, cardinal vein and dorsal aorta blood vessel morphology (histology, CD31 coronal sections) (PIK3CA^Tie2-Cre embryos; pregnant mice treated, E9.5 embryos) | Phospho-AKT staining in PIK3CA^Tie2-Cre and PIK3CA^WT embryos (PIK3CA^Tie2-Cre embryos; pregnant mice treated, versus untreated control embryos) | cephalic and intersomitic small blood vessel formation (CD31 whole-mount staining) (PIK3CA^Tie2-Cre embryos; [4]) | overall body size of PIK3CA^Tie2-Cre E9.5 embryos (PIK3CA^Tie2-Cre embryos; [4]) | ANG2 protein expression (ANG2) | ANG2 mRNA expression (ANG2) | phospho-AKT (S473) levels [1, 5] | phospho-S6RP (S240/4) levels [1, 5] | amount of phosphorylated AKT (T308 and S473) [3] |
| --- | --- | --- | --- | --- | --- | --- | --- | --- | --- | --- | --- | --- | --- |
| CO[C@H]1C[C@@H]2CC[C@@H](C)[C@@](O)(O2)C(=O)C(=O)N2CCCC[C@H]2C(=O)O[C@H]([C@H](C)C[C@@H]2CC[C@@H](OCCO)[C@H](OC)C2)CC(=O)[C@H](C)/C=C(\C)[C@@H](O)[C@@H](OC)C(=O)[C@H](C)C[C@H](C)/C=C/C=C/C=C/1C [everolimus] | partially decreased VM size; also recorded: greatest growth inhibition | did not increase apoptosis | partially decreased |  |  |  |  |  |  |  |  |  |  |
| Cc1nc(NC(=O)N2CCC[C@H]2C(N)=O)sc1-c1ccnc(C(C)(C)C(F)(F)F)c1 [BYL719] | decrease in VM volume | increased apoptosis | decrease in proliferation; also recorded: reduced proliferation | rapid and sustained regression of skin lesions | reestablished meningeal, cardinal vein, and dorsal aorta blood vessels morphology | strong reduction | restored cephalic and intersomitic small blood vessel formation | comparable to PIK3CA^WT littermates | able to rescue | able to rescue | decrease | decrease | decreased |
| Cl.Cl.NC1(c2ccc(-c3nc4ccn5c(=O)[nH]nc5c4cc3-c3ccccc3)cc2)CCC1 [MK2206, 8-[4-(1-aminocyclobutyl)phenyl]-9-phenyl-1,2,4-triazolo[3,4-f][1,6]naphthyridin-3(2H)-one, dihydrochloride] |  |  |  |  |  |  |  |  | able to rescue | able to rescue |  |  |  |
